Measured values: patent publication US20230310368A1, “MDMA ENANTIOMERS” (Mind Medicine, Inc., priority 2021, published 2023)
Entries after “also recorded” stand apart in the source; their conditions may differ.

Columns and labels:
[1] = system: Fmr1 KO mice; assay: Ultrasonic Vocalization (USV) test; assay type: in vivo, mouse; conditions: any dose, oral, 5 minutes recording, P<0.001
Description: (§1) Methods. The study was conducted in 10-week-old male Fmr1 KO mice. Animals were dosed per os with vehicle, R(−)-MDMA (8, 17 and 30 mg/kg) or SR-MDMA (8 mg/kg) with a minimum 3-day washout between doses. […] Compounds were administered 30 minutes prior to each behavioral test. Basic statistical analysis was performed. If more than 2 groups were compared with each other, significance was calculated by One-way or Two-way analysis of variance (ANOVA) followed by the Bonferroni post hoc test. In case of non-normally distributed data, significance was calculated by Kruskal-Wallis test followed by Dunn's multiple comparisons test.
Adult male mice emit Ultrasonic Vocalization (USV) under selected experimental conditions, upon encountering a sexually receptive female or female urine. These vocal emissions are considered an index of emotionality, social interest, and motivation.
To induce the estrous cycle in female mice, mice were subcutaneously treated with 50 μl of ß-estradiol 48 hours prior to testing (time sensitive). […]
On the test day, study animals were habituated in a separate soundproof room. Before recording, each mouse was separated from its home cage, placed in another cage that was covered with fresh bedding, and moved to the next soundproof room equipped with an UltraSoundGate Condenser Microphone (CM16; Avisoft Bioacoustics, Berlin, Germany), connected via an Avisoft UltraSoundGate 416 USB Audio device (Avisoft Bioacoustics) to a personal computer, where acoustic data were recorded with a sampling rate of 250,000 Hz in 16-bit format. […] Vocal emission was recorded for 5 minutes.
For acoustical analysis, recordings were transferred to SASLab Pro (Avisoft Bioacoustics) and a fast Fourier transform was conducted (512 FFT length, 100% frame, Hamming window, and 75% time window overlap). […] The total number of vocalizations and the latency to initiate the first call were extracted and evaluated for the whole 5 minutes of recording.
Methods. […] The time spent in each of three arenas: the neutral arena, the stranger arena or the empty arena, was assessed (FIG. 5). […]

[2] = system: Fmr1 KO mice; assay: Three-Chamber Social Interaction Test (TCSIT); assay type: in vivo, mouse
Description: as §1
To measure sociability, animals were tested in the Three Chamber Social Interaction Test. It consisted of a habituation phase, an approach phase and a recognition phase (FIG. 5).
On the testing day, the test animal was placed in the center of the box and was allowed to explore it for ten minutes with two empty stranger mouse cylinders on each side of the box for habituation.
Social approach: After habituation, the mouse was removed from the box, the box was cleaned with 70% Isopropanol and dried with a hand fan. A sex-matched stranger mouse was placed into the mouse cylinder in the left chamber and the test animal was placed in the center of the box again for ten minutes.
Social recognition: After the social approach, mice were immediately tested for social recognition. The already known mouse stayed in the left chamber and a new mouse was placed under the cylinder in the right chamber. The test mouse was again placed in the middle chamber and, for 10 minutes, it was measured how much time it spent in each chamber and how much time it spent sniffing each mouse. Healthy mice will spend more time with the new mouse due to novelty. Socially disturbed mice might not recognize the already known mouse and spend therefore similar amounts of time with each mouse.
Both social approach and social recognition were recorded and analyzed by using Noldus Ethovision 8.5.
(§2) Methods. The study was conducted in 96 10-week-old male Fmr1 KO mice. Animals were dosed orally with vehicle, R(−)-3,4-MDMA (8, 17 and 30 mg/kg), S-(+)-3,4-MDMA (8 mg/kg) or (±)-3,4-MDMA (8 mg/kg) with a minimum 3-day washout between doses. In the Three-Chamber Social Interaction Test (TCSIT), a stranger animal was placed in one of two wire cylinders in the testing area. The time spent in each of three arenas: the neutral arena, the stranger arena or the empty arena, was assessed (FIG. 5). Animals were evaluated in the Open Field Test (OFT) measuring hyperactivity, locomotor activity, thigmotaxis and grooming duration (FIGS. 7A-7B). In the Ultrasonic Vocalization (USV) test, male mice were exposed to fresh urine from females in the estrous cycle. Vocal emissions were recorded for 5 minutes and analyzed. Compounds were administered 30 minutes before each behavioral test. Significance was calculated by One-way analysis of variance followed by the Bonferroni post hoc test. In non-normally distributed data, Kruskal-Wallis test followed by Dunn's multiple comparisons test was applied.

[3] = background, limited pre-clinical evidence; cited from earlier work
[4] = system: dopamine; conditions: background, receptor studies and limited pre-clinical evidence; cited from earlier work
[5] = system: Fmr1 KO mice; assay: Open Field Test (OFT) including grooming evaluation; assay type: in vivo, mouse
Description: as §1
Spontaneous activity and anxiety was assessed in the Open Field by evaluating the following parameters: hyperactivity [s], activity [s], distance [m], rearings [s], rearings [n] and grooming behavior. For that purpose, a Plexiglas Open Field (48×48 cm) in combination with a computerized video tracking system (Noldus Ethovision XT 14) was used (FIGS. 7A-7B).
The mice were brought to the room at least 45 minutes before the start of the testing. Each test session lasted for 5 minutes to check the mice's behavior in the new surroundings, as the first minutes of the Open Field test are the most suitable to display the exploration behavior of the animals. After the testing session, the number of fecal boluses was counted, as a measure of emotionality. The Open Field was cleaned with 70% Isopropanol after each mouse to get rid of odor traces. Testing was performed under standard room lighting conditions during the light phase of the circadian cycle.
as §2

[6] = oral, 30 minutes before test, R compared to S or racemate P<0.001

SMILES | number of vocalizations [1] | Arena Frequency with the stranger ([2]; 8 mg/kg oral) | Interaction Duration with the stranger ([2]; 8 mg/kg oral) | Interaction Index with the stranger ([2]; 8 mg/kg oral) | interaction with the stranger and empty chamber vs. vehicle-treated animals ([2]; 8 mg/kg oral) | hyperthermia [3] | efficacy as a releaser of dopamine [4] | Arena Frequency with the stranger ([2]; 30 mg/kg oral, P<0.001) | interaction with the stranger and empty chamber vs. vehicle-treated animals ([2]; all three doses (8, 17 and 30 mg/kg) oral, P<0.01) | effect on social interaction compared with S-(+)-3,4-MDMA or (±)-3,4-MDMA ([2]; conclusion of the study) | social approach and interaction ([2]; male Fmr1 KO mice, oral 8, 17 and 30 mg/kg, 30 minutes before test) | number of grooming occasions ([5]; 30 mg/kg oral) | distance moved [5, 6] | hyperactivity [5, 6] | number of grooming occasions ([5]; oral, R 8, 17, 30 mg/kg, S and racemate 8 mg/kg)
CNC(C)Cc1ccc2c(c1)OCO2 (racemic) [(±)-3,4-MDMA, S,R(±)-3,4-methylenedioxymethamphetamine] | significantly reduced | no effect | no effect | no effect | efficacious only for interaction with the stranger | – | – | – | – | – | – | – | – | – | –
CN[C@H](C)Cc1ccc2c(c1)OCO2 [R(−)-3,4-MDMA, R(−)-3,4-methylenedioxymethamphetamine] | significantly reduced | – | – | – | – | does not produce hyperthermia | low efficacy | statistically significant | significant difference | more potent | dose-dependently increased | active | significantly lesser effect | significantly lesser effect; also recorded: significantly reduced hyperactivity effects | less efficacious than S-(+)-3,4-MDMA or (±)-3,4-MDMA
CN[C@@H](C)Cc1ccc2c(c1)OCO2 [S-(+)-3,4-MDMA] | significantly reduced | no effect | no effect | no effect | not associated with significant changes | – | – | – | – | – | – | – | – | – | –
